According to PubChem BioAssay AID2060489 (Molecular Pharmacology Branch, DTP, NCI, 2025):
Several values for one entry are separate records, joined by “and”; a condition that tells them apart may be missing. Identical values can stand only once.

Tested on: 922993-354-T-J3-PDC complex spheroids, viability
Assay: Anticancer human tumor 922993-354-T-J3-PDC patient-derived endometrial carcinoma cell line growth inhibition [GQUAD]
Conditions: for viability, T/C: stronger effect = lower value; active = viability on the fitted dose curve at most 10% of control; inactive = the rest
Source text: DNA G-quadruplex Stabilizer Agents in Combinations in Complex Spheroids
A high-throughput screen of multi-cell type tumor spheroids was designed to identify active combinations of DNA G-quadruplex stabilizer agents and targeted small molecules. Complex spheroids include a stromal component modeled by human endothelial cells (HUVEC) and fibroblasts modeled by human mesenchymal stem cells (MSCs). The concentration ranges selected for each drug and investigational agent were based upon clinically achievable concentrations if the clinical Cmax of the agent was known.
Compounds. The drugs and investigational agents: pidnarulex (CX-5461; NSC782164), APTO-253 (NSC789042), BRACO-19 (NSC847499), peposertib (NSC802822), ceralasertib (NSC780249), elimusertib (NSC800525), camonsertib (NSC841442), AZD-1390 (NSC803789), olaparib (NSC753686), talazoparib (NSC767125), ART-558 (NSC835418), sotorasib (NSC818433), MRTX-1133 (NSC836407), SN-38 (NSC673596), topotecan (NSC609699), etoposide (NSC141540), doxorubicin (NSC123127), gemcitabine (NSC613327), 5-fluorouracil (NSC19893), paclitaxel (NSC125973), vemurafenib (NSC761431), panobinostat (NSC761190), R-306465 (JNJ-16241199; NSC773264), adavosertib (NSC754352), TP-3654 (NSC805149), carboplatin (NSC241240), KSQ-4279 (NSC840948), and staurosporine (NSC755774) were obtained from the National Cancer Institute (NCI) Developmental Therapeutics Program Chemical Repository (34). The FDA-approved anticancer drug set is available from the NCI Developmental Therapeutics Program. […] The stock solutions were prepared in dimethyl sulfoxide (DMSO, Sigma-Aldrich, St. Louis, MO, cat. D2650) at 800-fold the tested concentration and stored at -70 degrees C prior to their use. All drugs and investigational agents were tested over a range starting from a high concentration at or near the clinical Cmax and decreasing in half-log increments. If the clinical Cmax for an agent had not been determined, the highest concentration tested was 10 microM.
2.3 Cell Culture. All cells were maintained in an incubator at 37 degrees C and 5% CO2 with 95% humidity. The PDC lines were cultured according to standard operating procedures established by the NCI PDMR. All PDCs were thawed and cultured in Matrigel-coated flasks prepared with a working solution of 1X Ham's F-12 nutrient mix, without supplementation (Invitrogen, cat. 11765054), 100 U/mL penicillin-streptomycin (Invitrogen, cat. 15140122), and 2.5% Matrigel (Corning Inc., cat. 354248) for the first three passages. The 857933-349-R-J2-PDC line was cultured in 6C/Colon 1B media, which includes advanced DMEM/F-12 (Thermo Fisher Scientific, cat. 12634028), 10 mM HEPES (Thermo Fisher Scientific, cat. 15630080), 1X GlutaMAX supplement (Thermo Fisher Scientific, cat. 35050061), 0.1 mg/mL primocin (InvivoGen, cat. ant-pm-2), 10% defined fetal bovine serum, heat inactivated (HyClone Laboratories Inc., cat. SH30070.03HI), 50% L-WRN conditioned media (ATCC, cat. CRL-3276), 1.25 mM N-Acetyl-L-cysteine (Sigma-Aldrich, cat. A9165), 10 mM nicotinamide (Sigma-Aldrich, cat. N0636), 1X B-27 supplement (Thermo Fisher Scientific, cat. 17504044), 1X N-2 supplement (Thermo Fisher Scientific, cat. 17502048), 10 microM Y-27632 dihydrochloride (Tocris Bioscience, cat. 1254), and 50 ng/mL human EGF recombinant protein (Thermo Fisher Scientific, cat. PHG0311). The 485176-168-R4-J1-PDC line was cultured in Panc media, which includes all 6C/Colon 1B media components plus 100 ng/mL human FGF-10 (Thermo Fisher Scientific, cat. 100-26), 500 nM SB-431542 (Selleckchem, cat. S1067), and gastrin (Tocris, cat. 3006).
[…]

[1] = curve of first compound, second compound 0.0316 µM
[2] = curve of first compound, second compound 0.1 µM
[3] = curve of first compound, second compound 0.316 µM
[4] = curve of first compound, second compound 1 µM
[5] = curve of first compound, second compound 3.16 µM
[6] = curve of first compound, second compound 10 µM
[7] = second compound 0.0316 µM, first compound 0.0316 µM
[8] = second compound 0.0316 µM, first compound 0.316 µM
[9] = second compound 0.1 µM, first compound 0.0316 µM
[10] = second compound 0.1 µM, first compound 0.316 µM
[11] = second compound 0.316 µM, first compound 0.0316 µM
[12] = second compound 0.316 µM, first compound 0.316 µM
[13] = second compound 1 µM, first compound 0.0316 µM
[14] = second compound 1 µM, first compound 0.316 µM
[15] = second compound 3.16 µM, first compound 0.0316 µM
[16] = second compound 3.16 µM, first compound 0.316 µM
[17] = second compound 10 µM, first compound 0.0316 µM
[18] = second compound 10 µM, first compound 0.316 µM
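Also: spheroids exposed to compounds for seven days.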

Cn1ncnc1[C@H]1c2n[nH]c(=O)c3cc(F)cc(c23)N[C@@H]1c1ccc(F)cc1 + Cc1cnc(CNC(=O)c2c(=O)c3ccc(N4CCCN(C)CC4)nc3n3c2sc2ccccc23)cn1
inactive: viability, T/C (second compound 0.0316 µM, first compound 0.000999 µM) 93.2% | viability, T/C (second compound 0.0316 µM, first compound 0.00316 µM) 78.7% | viability, T/C (second compound 0.0316 µM, first compound 0.00999 µM) 76.6% | viability, T/C [7] 72.8% | viability, T/C (second compound 0.0316 µM, first compound 0.0999 µM) 72.3% | viability, T/C [8] 59.9% | viability, T/C (second compound 0.1 µM, first compound 0.000999 µM) 65.4% | viability, T/C (second compound 0.1 µM, first compound 0.00316 µM) 69.2% | viability, T/C (second compound 0.1 µM, first compound 0.00999 µM) 58.3% | viability, T/C [9] 50.7% | viability, T/C (second compound 0.1 µM, first compound 0.0999 µM) 52.2% | viability, T/C [10] 39.3% | viability, T/C (second compound 0.316 µM, first compound 0.000999 µM) 43.5% | viability, T/C (second compound 0.316 µM, first compound 0.00316 µM) 54.2% | viability, T/C (second compound 0.316 µM, first compound 0.00999 µM) 55.6% | viability, T/C [11] 44.2% | viability, T/C (second compound 0.316 µM, first compound 0.0999 µM) 41.6% | viability, T/C [12] 32% | viability, T/C (second compound 1 µM, first compound 0.000999 µM) 49.2% | viability, T/C (second compound 1 µM, first compound 0.00316 µM) 53.4% | viability, T/C (second compound 1 µM, first compound 0.00999 µM) 45.9% | viability, T/C [13] 49.9% | viability, T/C (second compound 1 µM, first compound 0.0999 µM) 50.3% | viability, T/C [14] 49.6% | viability, T/C (second compound 3.16 µM, first compound 0.000999 µM) 41.9% | viability, T/C (second compound 3.16 µM, first compound 0.00316 µM) 50.1% | viability, T/C (second compound 3.16 µM, first compound 0.00999 µM) 44% | viability, T/C [15] 49.5% | viability, T/C (second compound 3.16 µM, first compound 0.0999 µM) 49.4% | viability, T/C [16] 37.2% | viability, T/C (second compound 10 µM, first compound 0.000999 µM) 49% | viability, T/C (second compound 10 µM, first compound 0.00316 µM) 43.6% | viability, T/C (second compound 10 µM, first compound 0.00999 µM) 48.4% | viability, T/C [17] 49% | viability, T/C (second compound 10 µM, first compound 0.0999 µM) 49.3% | viability, T/C [18] 41.6%
0.0717 µM: IC50 [2]
0.00719 µM: IC50 [3]
< 0.000999 µM: IC50 [4] | IC50 [5] | IC50 [6]
> 0.316 µM: IC50 [1]

CC(C)n1c(=O)n(C)c2cnc3cc(F)c(-c4ccc(OCCCN5CCCCC5)nc4)cc3c21
inactive: viability, T/C (compound 0.0316 µM) 96.3% and 98.6% and 87.9% | viability, T/C (compound 0.1 µM) 105% and 85.5% and 77.3% | viability, T/C (compound 0.316 µM) 70.1% and 91.7% and 63.2% | viability, T/C (compound 1 µM) 96% and 84.2% and 81.9% | viability, T/C (compound 3.16 µM) 77.9% and 79.6% and 84.8% | viability, T/C (compound 10 µM) 49.7% and 55.9% and 41.8%
> 10 µM and 7.75 µM: IC50 (curve of compound)

CC1COCCN1c1cc(C2(S(C)(=N)=O)CC2)nc(-c2ccnc3[nH]ccc23)n1 (stereo not drawn) + CN(C)c1ccc(Nc2c3ccc(NC(=O)CCN4CCCC4)cc3nc3cc(NC(=O)CCN4CCCC4)ccc23)cc1
> 10 µM: IC50 [1] | IC50 [2] | IC50 [3] | IC50 [4] | IC50 [5] | IC50 [6]
inactive: viability, T/C [7] 110% | viability, T/C (second compound 0.0316 µM, first compound 0.1 µM) 124% | viability, T/C [8] 127% | viability, T/C (second compound 0.0316 µM, first compound 1 µM) 87.1% | viability, T/C (second compound 0.0316 µM, first compound 3.16 µM) 117% | viability, T/C (second compound 0.0316 µM, first compound 10 µM) 70.4% | viability, T/C [9] 119% | viability, T/C (second compound 0.1 µM, first compound 0.1 µM) 121% | viability, T/C [10] 96.4% | viability, T/C (second compound 0.1 µM, first compound 1 µM) 85.2% | viability, T/C (second compound 0.1 µM, first compound 3.16 µM) 92.1% | viability, T/C (second compound 0.1 µM, first compound 10 µM) 68.4% | viability, T/C [11] 102% | viability, T/C (second compound 0.316 µM, first compound 0.1 µM) 102% | viability, T/C [12] 89% | viability, T/C (second compound 0.316 µM, first compound 1 µM) 111% | viability, T/C (second compound 0.316 µM, first compound 3.16 µM) 89.5% | viability, T/C (second compound 0.316 µM, first compound 10 µM) 64.6% | viability, T/C [13] 114% | viability, T/C (second compound 1 µM, first compound 0.1 µM) 116% | viability, T/C [14] 99.9% | viability, T/C (second compound 1 µM, first compound 1 µM) 96.5% | viability, T/C (second compound 1 µM, first compound 3.16 µM) 121% | viability, T/C (second compound 1 µM, first compound 10 µM) 76.2% | viability, T/C [15] 102% | viability, T/C (second compound 3.16 µM, first compound 0.1 µM) 128% | viability, T/C [16] 105% | viability, T/C (second compound 3.16 µM, first compound 1 µM) 115% | viability, T/C (second compound 3.16 µM, first compound 3.16 µM) 108% | viability, T/C (second compound 3.16 µM, first compound 10 µM) 79.3% | viability, T/C [17] 121% | viability, T/C (second compound 10 µM, first compound 0.1 µM) 140% | viability, T/C [18] 130% | viability, T/C (second compound 10 µM, first compound 1 µM) 114% | viability, T/C (second compound 10 µM, first compound 3.16 µM) 109% | viability, T/C (second compound 10 µM, first compound 10 µM) 93.4%

Nc1ccn(C2OC(CO)C(O)C2(F)F)c(=O)n1 (stereo not drawn)
< 0.0316 µM: IC50 (curve of compound)
inactive: viability, T/C (compound 0.0316 µM) 22.6% and 12.1% and 26.3% | viability, T/C (compound 0.1 µM) 22% and 11.3% and 23.6% | viability, T/C (compound 0.316 µM) 28% and 12.5% and 23.7% | viability, T/C (compound 1 µM) 24.6% and 13.1% and 30.6% | viability, T/C (compound 3.16 µM) 23.4% and 12.9% and 18.8% | viability, T/C (compound 10 µM) 20.9% and 11.3% and 20.8%
